Results on 5 molecules are retold here after publication PMC5456363 (PLoS ONE, 2017).

For orientation: share remaining means what is left of the initial amount, in per cent.

“And” between values parts separate entries of the source, which are not always exact repeats. Equal values may be shown once. “Also recorded” adds a separate entry of the source. Non-standard residues stand in square brackets, D forms with d. Residues, ends and D or L forms follow the SMILES beside them. *: point of attachment. Orn(α-tetramethylguanidino) = CN(C)C(=N[C@@H](CCCN)C(=O)*)N(C)C

A short description of data set [1]: Stability and metabolites across fresh blood, serum and plasma (all six matrices). The settings on record: fresh blood, serum, and plasma.
Protocol: Aqueous peptide solutions (3 g/L) were filled in a sterile syringe (1 mL, Dispomed Witt oHG, Gelnhausen, Deutschland) through the front end, the stainless-steel needle was attached, and blood (200 to 300 μL) was collected via cardiac puncture to obtain a peptide concentration of approximately 31,5 μmol/L. The syringe was carefully disconnected from the needle and sealed while keeping the needle in the heart. A second empty syringe was attached to the needle and 0.5 to 0.8 mL blood were collected. In parallel, the sealed syringe was gently shaken for one minute to mix the peptide solution with blood and further incubated on a Stuart Rotator SB3 (Barloworld, Scientific LTD, Stone, Staffordshire, U.K.) placed in an incubator at 37°C. […] The plasma sample designated as “blood” (B) was precipitated with trichloroacetic acid (TCA), as described below. Blood collected in the second syringe was transferred to a polypropylene tube (Eppendorf AG, Hamburg, Germany) and a BD Microtainer® serum separator tube (SST; Becton, Dickinson and Company). Polypropylene tubes were centrifuged immediately (12,000 x g, 2 to 4 min) to obtain “direct serum” (DS) as supernatant, whereas the serum separator tubes were incubated (room temperature, 1 h), centrifuged (12,000 x g, 2 min), and collected as “activated serum” (AS). Pooled mouse serum was purchased from PAA Laboratories GmbH (Pasching, Austria) and pooled CD-1 mouse plasma containing K2EDTA or lithium heparin were obtained from Innovative Research (Novi, MI, USA).
Peptides were mixed with serum or plasma to a final concentration of 31.5 μmol/L and incubated (37°C, 750 rpm; Thermomixer, Eppendorf AG, Hamburg, Germany). Aliquots (20 or 40 μL) taken after 0 and 60 min (0, 10 and 30 min for Api88) were mixed with TCA to obtain a final concentration of 3% (w/v) and incubated on ice (10 min). After centrifugation (12,000 x g, 5 min), the supernatant was neutralized with sodium hydroxide (1 mol/L) and stored at −20°C. Samples were analyzed by RP-HPLC on a Jupiter C18-column (internal diameter: 2 mm, length: 150 mm, particle size: 5 μm, pore size: 30 nm) using a linear aqueous acetonitrile gradient containing TFA (0.1%, v/v) as ion pair reagent. Peptides were detected by recording the absorbance at 214 nm and quantified by their peak areas relative to the initial peak areas (0 min). All stability tests were performed at least in triplicates.
Metabolites were identified on an Agilent 1100 LC system (Agilent Technologies, Santa Clara, CA, USA) coupled on-line via a UV-detector (absorbance recorded at 214 nm) to the electrospray ionization source on an ion trap mass spectrometer (ESI-IT-MS, Esquire HCT, Bruker Daltonics GmbH, Bremen, Germany). Samples were separated on an Aqua C18-column (inner diameter: 2 mm, length: 150 mm, particle size: 3 μm, pore size: 12.5 nm, Phenomenex; column temperature: 60°C) at a flow rate of 0.2 mL/min using a linear gradient of aqueous acetonitrile in the presence of formic acid (FA; 0.1%, v/v) as ion pair reagent. […] The ESI-IT-MS was operated in positive ion mode. Ionization was carried out at 365°C (source temperature) using nitrogen as curtain gas (40 psi) and dry gas (9 L/min). Mass spectra were acquired for an m/z range from 400 to 1300 at a scan rate of 8100 m/z-units per second in standard enhanced mode.
Data set [2] can be described thus: Peptide stability in commercial serum (CS). Format: in vitro ADME, mouse. Particulars: 37°C. The method, then: (§1) All stability tests were performed at least in triplicates.
Data set [3] is described as follows: Peptide stability in activated serum (AS). The settings on record: 37°C. Format: in vitro ADME, CD-1 mice. As for the experimental part: as §1
Data set [4] can be described thus: Peptide stability in EDTA plasma (EP). It counts as in vitro ADME, CD-1 mouse. Particulars: 37°C. The method, then:
as §1

Data set [5] is described as follows: Peptide stability in heparin plasma (HP). It counts as in vitro ADME, CD-1 mouse. Particulars: CD-1, mouse, pooled plasma containing lithium heparin, 37°C, read-out: intact peptide remaining relative to time zero. As for the experimental part:
as §1

A short description of data set [6]: Peptide stability in fresh blood taken by cardiac puncture into a syringe containing the peptide (blood, B). It counts as in vitro ADME, CD-1 mice. The method, then: as §1
Data set [7] can be described thus: Peptide stability in direct serum (DS). Particulars: 37°C. Format: in vitro ADME, CD-1 mice. As for the experimental part:
as §1

Data set [8] has as its target T1, human α-thrombin (Homo sapiens, UniProt P00734).
T1 construct: with human α-Thrombin for 0, 1, and 24 hours
As to the kind of experiment: α-Thrombin stability assay. Format: in vitro ADME. The method, then: Supplementary file pone.0178943.s003.tif: S3 Fig Stability of Api88, Api137, and LVPR-Onc112 against human α-thrombin. Chromatograms recorded after incubation of Api88 (a), Api137 (b), or LVPR-Onc112 (c) with human α-Thrombin for 0, 1, and 24 hours (UV absorbance). […] (TIF) Click here for additional data file.
S1 Text. Method α-Thrombin stability assay.

For data set [9] the following is noted: in vitro, mouse serum; cited from earlier work.
A short description of data set [10]: pooled CD-1 mouse plasma containing K2EDTA (EDTA plasma, EP). Particulars: 37°C, up to 60 min.
Data set [11] is described as follows: pooled CD-1 mouse plasma containing lithium heparin (heparin plasma, HP). The settings on record: 37°C, up to 60 min.
A short description of data set [12]: blood collected via cardiac puncture into a syringe containing the peptide solution (“blood”, B). The settings on record: CD-1 mice, 37°C, up to 60 min.
Data set [13] can be described thus: 25% aqueous commercial serum. Particulars: cited from earlier work.
Data set [14] is described as follows: “activated serum” (AS): serum separator tubes incubated (room temperature, 1 h), centrifuged. Particulars: CD-1 mice, 37°C, up to 60 min.
Data set [15] in a line: Pooled mouse serum (PAA Laboratories), commercial serum (CS). Particulars: 37°C, up to 60 min.
The nature of data set [16]: “direct serum” (DS): blood in polypropylene tubes centrifuged immediately. Particulars: CD-1 mice, 37°C, up to 60 min.
The test system of data set [17] is human α-thrombin. As to the kind of experiment: human α-thrombin. The settings on record: up to 24 hours.

As for `CC[C@H](C)[C@H](NC(=O)[C@H](Cc1ccc(O)cc1)NC(=O)[C@@H](NC(=O)[C@@H]1CCCN1C(=O)[C@H](CCCNC(=N)N)NC(=O)[C@H](CC(N)=O)NC(=O)[C@H](CC(N)=O)NC(=O)[C@H](CCCN)N=C(N(C)C)N(C)C)C(C)C)C(=O)N1CCC[C@H]1C(=O)N[C@@H](CCCNC(=N)N)C(=O)N1CCC[C@H]1C(=O)N[C@@H](CCCNC(=N)N)C(=O)N1CCC[C@H]1C(=O)N1CCC[C@H]1C(=O)N[C@@H](Cc1c[nH]cn1)C(=O)N1CCC[C@H]1C(=O)N[C@@H](CCCNC(=N)N)C(=O)N[C@@H](CC(C)C)C(N)=O` [Api88, gu-ONNRPVYIPRPRPPHPRL-NH2] ({Orn(α-tetramethylguanidino)}-NNRPVYIPRPRPPHPRL-NH2), in [1], the Overall stability result is “Low”. The Sequential stability entry in data set [1] is “Blood > Plasma > Serum”. Also, the “intact peptide remaining relative to time zero” value in [2] (commercial serum, 30 min) was “fully degraded”; in data set [3] (30 min) it was “fully degraded”; in data set [6] (blood, 37°C, 10 min), 88 ± 15%; in data set [7] (30 min) it was “fully degraded”. Besides, the amount remaining at 10 min, 31.5 μmol/L is 10 ± 2% in data set [2] (mouse, commercial pooled serum, commercial serum, 10 min, read-out: intact peptide remaining relative to time zero); 22 ± 5% in data set [3] (CD-1, mouse, 10 min, read-out: intact peptide remaining relative to time zero); 48 ± 4% in [4] (CD-1, mouse, pooled plasma containing K2EDTA, 10 min, read-out: intact peptide remaining relative to time zero); 77 ± 5% in [5] (10 min); 11 ± 6% in [7] (CD-1, mouse, direct serum (supernatant of blood centrifuged immediately), 10 min, read-out: intact peptide remaining relative to time zero). Also, the amount remaining at 0.5 h, 31.5 μmol/L in data set [4] (CD-1, mouse, pooled plasma containing K2EDTA, 30 min, read-out: intact peptide remaining relative to time zero) stood at 5 ± 3%; in data set [5] (30 min), 36 ± 1%. For the same molecule, the half-life at 31.5 μmol/L in [6] (CD-1, mouse, fresh whole blood taken by cardiac puncture, indicated by the recovery after 10 min, read-out: half-life time in fresh mouse blood (converted)) is around 1 h. Moreover, the amount remaining at 10 min in data set [6] (CD-1, mouse, fresh whole blood, blood, 37°C, 10 min, read-out: intact peptide remaining relative to time zero) worked out at 88 ± 14%. In addition, the amount remaining at 0.5 h in [6] (CD-1, mouse, fresh whole blood, blood, 37°C, 30 min, read-out: intact peptide remaining relative to time zero) amounted to 30 ± 14%. The “half-life time in fresh mouse blood relative to that reported for serum” value in data set [6] (blood versus reported serum half-life) is reported as 30 fold. In addition, in data set [8] (after one hour), the “proteolytic cleavage by human α-thrombin” value is given as “completely degraded”.
Consider `CC[C@H](C)[C@H](NC(=O)[C@H](Cc1ccc(O)cc1)NC(=O)[C@@H](NC(=O)[C@@H]1CCCN1C(=O)[C@H](CCCNC(=N)N)NC(=O)[C@H](CC(N)=O)NC(=O)[C@H](CC(N)=O)NC(=O)[C@H](CCCN)N=C(N(C)C)N(C)C)C(C)C)C(=O)N1CCC[C@H]1C(=O)N[C@@H](CCCNC(=N)N)C(=O)N1CCC[C@H]1C(=O)N[C@@H](CCCNC(=N)N)C(=O)N1CCC[C@H]1C(=O)N1CCC[C@H]1C(=O)N[C@@H](Cc1c[nH]cn1)C(=O)N1CCC[C@H]1C(=O)N[C@@H](CCCNC(=N)N)C(=O)N[C@@H](CC(C)C)C(=O)O` [Api137, gu-ONNRPVYIPRPRPPHPRL-OH] ({Orn(α-tetramethylguanidino)}-NNRPVYIPRPRPPHPRL-OH), for which the Overall stability entry in data set [1] is “High”. The Sequential stability entry in data set [1] is recorded as “Blood = Plasma = Serum”. For the same molecule, the fraction remaining at 1 h, 31.5 μmol/L in data set [2] (commercial pooled serum, commercial mouse serum, 1 h, 31.5 μmol/L, read-out: intact peptide remaining relative to time zero) worked out at 87 ± 9%; in data set [5] (1 h, 31.5 μmol/L) it was 83 ± 2%. For the same molecule, the “intact peptide remaining relative to time zero” value in data set [3] (1 h, 31.5 μmol/L) is recorded as at least 94%; in [4] (1 h, 31.5 μmol/L) it was at least 94%; in data set [7] (1 h, 31.5 μmol/L) it was at least 94%. In addition, in data set [9], the “half-life time in mouse serum” value was 6 h. The “proteolytic cleavage by human α-thrombin” value in data set [8] (after 24 h) is “remained mostly intact”.
In the case of “AAYRVDKPPYLPRPRPPRrIYNr-NH2 (H-AAYRVDKPPYLPRPRPPR[dR]IYN[dR]-NH2; SMILES CC[C@H](C)[C@H](NC(=O)[C@@H](CCCNC(=N)N)NC(=O)[C@H](CCCNC(=N)N)NC(=O)[C@@H]1CCCN1C(=O)[C@@H]1CCCN1C(=O)[C@H](CCCNC(=N)N)NC(=O)[C@@H]1CCCN1C(=O)[C@H](CCCNC(=N)N)NC(=O)[C@@H]1CCCN1C(=O)[C@H](CC(C)C)NC(=O)[C@H](Cc1ccc(O)cc1)NC(=O)[C@@H]1CCCN1C(=O)[C@@H]1CCCN1C(=O)[C@H](CCCCN)NC(=O)[C@H](CC(=O)O)NC(=O)[C@@H](NC(=O)[C@H](CCCNC(=N)N)NC(=O)[C@H](Cc1ccc(O)cc1)NC(=O)[C@H](C)NC(=O)[C@H](C)N)C(C)C)C(=O)N[C@@H](Cc1ccc(O)cc1)C(=O)N[C@@H](CC(N)=O)C(=O)N[C@H](CCCNC(=N)N)C(N)=O)”, the fragment found in [10] was 5–23 [Onc112]; VDKPPYLPRPRPPRrIYNr-NH2; in data set [11] it was 5–23 [Onc112]; VDKPPYLPRPRPPRrIYNr-NH2; in data set [12] it was 5–23 [Onc112]; VDKPPYLPRPRPPRrIYNr-NH2; in data set [13] it was “Onc112”; in data set [14] it was 5–23 [Onc112]; VDKPPYLPRPRPPRrIYNr-NH2; in [15], 5–23 [Onc112]; VDKPPYLPRPRPPRrIYNr-NH2. Also, the fragment found in data set [16] is 5–23 [Onc112]; VDKPPYLPRPRPPRrIYNr-NH2.
Take “LVPRVDKPPYLPRPRPPRrIYNr-NH2 (H-LVPRVDKPPYLPRPRPPR[dR]IYN[dR]-NH2; SMILES CC[C@H](C)[C@H](NC(=O)[C@@H](CCCNC(=N)N)NC(=O)[C@H](CCCNC(=N)N)NC(=O)[C@@H]1CCCN1C(=O)[C@@H]1CCCN1C(=O)[C@H](CCCNC(=N)N)NC(=O)[C@@H]1CCCN1C(=O)[C@H](CCCNC(=N)N)NC(=O)[C@@H]1CCCN1C(=O)[C@H](CC(C)C)NC(=O)[C@H](Cc1ccc(O)cc1)NC(=O)[C@@H]1CCCN1C(=O)[C@@H]1CCCN1C(=O)[C@H](CCCCN)NC(=O)[C@H](CC(=O)O)NC(=O)[C@@H](NC(=O)[C@H](CCCNC(=N)N)NC(=O)[C@@H]1CCCN1C(=O)[C@@H](NC(=O)[C@@H](N)CC(C)C)C(C)C)C(C)C)C(=O)N[C@@H](Cc1ccc(O)cc1)C(=O)N[C@@H](CC(N)=O)C(=O)N[C@H](CCCNC(=N)N)C(N)=O)”: the fragment found entry in [10] was “LVPR-Onc112(4–23); RVDKPPYLPRPRPPRrIYNr-NH2, minor and 5–23 [Onc112]; VDKPPYLPRPRPPRrIYNr-NH2”; in data set [11], “LVPR-Onc112(4–23); RVDKPPYLPRPRPPRrIYNr-NH2, minor and 5–23 [Onc112]; VDKPPYLPRPRPPRrIYNr-NH2”; in [12], “LVPR-Onc112(4–23); RVDKPPYLPRPRPPRrIYNr-NH2 and 5–23 [Onc112]; VDKPPYLPRPRPPRrIYNr-NH2”; in [13], “Onc112”; in [14], “LVPR-Onc112(4–23); RVDKPPYLPRPRPPRrIYNr-NH2, minor and 5–23 [Onc112]; VDKPPYLPRPRPPRrIYNr-NH2”; in [15], “LVPR-Onc112(4–23); RVDKPPYLPRPRPPRrIYNr-NH2, minor and 5–23 [Onc112]; VDKPPYLPRPRPPRrIYNr-NH2”. In addition, in [16], the fragment found entry is “LVPR-Onc112(4–23); RVDKPPYLPRPRPPRrIYNr-NH2, minor and 5–23 [Onc112]; VDKPPYLPRPRPPRrIYNr-NH2”. For the same molecule, the cleaved bond entry in [17] was “C-terminal to Arg4 in LVPR-Onc112”.
Consider “gu-ONNRPVYIPRPRPPHPRL-OH ({Orn(α-tetramethylguanidino)}-NNRPVYIPRPRPPHPRL-OH)”, for which the not cleaved in data set [10] is ≥94% (one hour). The fragment found entry in [11] was “Api137(1–17); also recorded: Api137(1–16); also recorded: Api137(1–15); also recorded: Api137(7–18)”; in data set [17] it was “Api137(1–17), minor, 24 h”; in [12], “Api137(1–17); gu-ONNRPVYIPRPRPPHPR-OH; also recorded: Api137(1–16); also recorded: Api137(1–15); also recorded: Api137(7–18)”; in data set [14], “Api137(1–17); also recorded: Api137(1–16); also recorded: Api137(1–15)”; in [15], “Api137(1–17); gu-ONNRPVYIPRPRPPHPR-OH; also recorded: Api137(1–16); gu-ONNRPVYIPRPRPPHP-OH; also recorded: Api137(1–15)”; in data set [16], “Api137(1–17); gu-ONNRPVYIPRPRPPHPR-OH; also recorded: Api137(1–16); also recorded: Api137(1–15)”.
